From patent US12460243B2, “Mass spectrometry determination of the sensitivity or resistance of bacteria to an antibiotic” (priority 2019, dated 2025)
Bridge positions count the residues as written; N and C are the ends. Square brackets hold non-standard residues; d marks the D form. Peptide text beside a SMILES is read from it. * marks the point of attachment. Heptanoyl(6-Me) = CC(C)CCCCC(=O)*; Dab = NCC[C@H](N)C(=O)O

Test system: Klebsiella pneumoniae
Experiment: MALDI-TOF detection of released characteristic proteins, 10 min at 50° C., filtration (examples V, VI)
Format: cell-based
Conditions: for Aire sous la courbe des pics observés, Protéine ribosomique 50S L29 / Aire sous la courbe des pics observés, Protéine ribosomique 50S L31 / Aire sous la courbe des pics observés, Protéine ribosomique 50S L34 / Aire sous la courbe des pics observés, US9 / Ratio par protéine 6290/Colistine / Ratio par protéine 8308/Colistine / Ratio par protéine CsbD/Colistine / Ratio par protéine DNA BP H-NS/Colistine / Ratio par protéine L29/Colistine / Ratio par protéine L31/Colistine / Ratio par protéine L34/Colistine / Ratio par protéine US9/Colistine / Somme des ratios / Aire sous la courbe des pics observés, 6290 / Aire sous la courbe des pics observés, 8308 / Aire sous la courbe des pics observés, CsbD domain-containing protein / Aire sous la courbe des pics observés, DNA binding protein H-NS / sensitivity or resistance to colistin by MALDI-TOF: colistin 2.5 mg/ml, 10 min 50° C.; for classification by sum of the ratios against threshold: threshold 0.45
Procedure: The tests were carried out using the following steps: • preparing a suspension of microorganism at 2 McF in water (suspension medium, bioMérieux reference 70700), • preparing a solution of colistin sulfate (Sigma reference C4461) at a concentration of 2× in pure water (taking into account the colistin titer indicated by the manufacturer).
The proteins characteristic of the species Klebsiella pneumoniae are the DNA binding protein H-NS, the ribosomal proteins L29, L31, L34 and US9, the cold shock protein containing a CsbD domain (CsbD domain-containing protein), and the uncharacterized proteins with m/z 6290 and 8308. These proteins are characterized respectively by the peaks at 7705 (DNA binding protein H-NS), 7274 (L29), 7743 (L31), 5381 (L34), 7384 (US9), 8309 (CsbD), more or less 1000 parts per million (ppm). For their part, the hypothetical proteins are characterized by peaks at 6290 and […], more or less 1000 parts per million (ppm).
In the context of this example, the tests were carried out with the method of the present invention to determine the sensitivity or resistance of several bacteria of several strains such as in example V and comprising the following steps: • measuring the intensity of each peak observed, • finding a ratio between the sum of the intensities of the protein peaks of the microorganism and at least 1 peak of colistin. • determining the status, resistant or sensitive to colistin, as a function of the sum of the ratios obtained and of a threshold fixed for each species. • a resistant microorganism will have a low ratio and a sensitive microorganism will have a high ratio.
The K. pneumoniae strains KP S10-1, KP S10-2, KP S15-1, KP S15-2, KP R9-1, KP R9-2, KP R16-1 and KP R16-2 are also studied and the proteins characteristic of the species K. pneumoniae are analyzed. These characteristic proteins are the DNA binding protein H-NS, the ribosomal proteins L29, L31, L34 and US9, the cold shock protein containing a CsbD domain (CsbD domain-containing protein), and the uncharacterized proteins with m/z 6290 and 8308.

## CC(C)CCCCC(=O)N[C@@H](CCN)C(=O)N[C@H](C(=O)N[C@@H](CCN)C(=O)N[C@H]1CCNC(=O)[C@H]([C@@H](C)O)NC(=O)[C@H](CCN)NC(=O)[C@H](CCN)NC(=O)[C@H](CC(C)C)NC(=O)[C@@H](CC(C)C)NC(=O)[C@H](CCN)NC1=O)[C@@H](C)O [colistin] ({Heptanoyl(6-Me)}-[Dab]T[Dab][Dab][Dab][dL]L[Dab][Dab]T; lactam 4-C)
Strain KP S10-1
  Aire sous la courbe des pics observés, Protéine ribosomique 50S L29: 474 unité arbitraire
  Aire sous la courbe des pics observés, Protéine ribosomique 50S L31: 321 unité arbitraire
  Aire sous la courbe des pics observés, Protéine ribosomique 50S L34: 0 unité arbitraire
  Aire sous la courbe des pics observés, US9: 297 unité arbitraire
  Ratio par protéine 6290/Colistine: 0.55
  Ratio par protéine 8308/Colistine: 0.14
  Ratio par protéine CsbD/Colistine: 0.00
  Ratio par protéine DNA BP H-NS/Colistine: 0.25
  Ratio par protéine L29/Colistine: 0.31
  Ratio par protéine L31/Colistine: 0.21
  Ratio par protéine L34/Colistine: 0.00
  Ratio par protéine US9/Colistine: 0.20
  Somme des ratios: 1.66
Strain KP S10-2
  Aire sous la courbe des pics observés, 6290: 146 unité arbitraire
  Aire sous la courbe des pics observés, 8308: 54 unité arbitraire
  Aire sous la courbe des pics observés, CsbD domain-containing protein: 0 unité arbitraire
  Aire sous la courbe des pics observés, DNA binding protein H-NS: 119 unité arbitraire
  Aire sous la courbe des pics observés, Protéine ribosomique 50S L29: 124 unité arbitraire
  Aire sous la courbe des pics observés, Protéine ribosomique 50S L31: 76 unité arbitraire
  Aire sous la courbe des pics observés, Protéine ribosomique 50S L34: 134 unité arbitraire
  Aire sous la courbe des pics observés, US9: 77 unité arbitraire
  Ratio par protéine 6290/Colistine: 0.17
  Ratio par protéine 8308/Colistine: 0.06
  Ratio par protéine CsbD/Colistine: 0.00
  Ratio par protéine DNA BP H-NS/Colistine: 0.14
  Ratio par protéine L29/Colistine: 0.15
  Ratio par protéine L31/Colistine: 0.09
  Ratio par protéine L34/Colistine: 0.16
  Ratio par protéine US9/Colistine: 0.09
  Somme des ratios: 0.86
Strain KP S15-1
  Aire sous la courbe des pics observés, 6290: 215 unité arbitraire
  Aire sous la courbe des pics observés, 8308: 0 unité arbitraire
  Aire sous la courbe des pics observés, CsbD domain-containing protein: 248 unité arbitraire
  Aire sous la courbe des pics observés, DNA binding protein H-NS: 0 unité arbitraire
  Aire sous la courbe des pics observés, Protéine ribosomique 50S L29: 0 unité arbitraire
  Aire sous la courbe des pics observés, Protéine ribosomique 50S L31: 0 unité arbitraire
  Aire sous la courbe des pics observés, Protéine ribosomique 50S L34: 0 unité arbitraire
  Aire sous la courbe des pics observés, US9: 150 unité arbitraire
  Ratio par protéine 6290/Colistine: 0.24
  Ratio par protéine 8308/Colistine: 0.00
  Ratio par protéine CsbD/Colistine: 0.28
  Ratio par protéine DNA BP H-NS/Colistine: 0.00
  Ratio par protéine L29/Colistine: 0.00
  Ratio par protéine L31/Colistine: 0.00
  Ratio par protéine L34/Colistine: 0.00
  Ratio par protéine US9/Colistine: 0.17
  Somme des ratios: 0.68
Strain KP S15-2
  Aire sous la courbe des pics observés, 6290: 141 unité arbitraire
  Aire sous la courbe des pics observés, 8308: 0 unité arbitraire
  Aire sous la courbe des pics observés, CsbD domain-containing protein: 237 unité arbitraire
  Aire sous la courbe des pics observés, DNA binding protein H-NS: 0 unité arbitraire
  Aire sous la courbe des pics observés, Protéine ribosomique 50S L29: 0 unité arbitraire
  Aire sous la courbe des pics observés, Protéine ribosomique 50S L31: 0 unité arbitraire
  Aire sous la courbe des pics observés, Protéine ribosomique 50S L34: 0 unité arbitraire
  Aire sous la courbe des pics observés, US9: 92 unité arbitraire
  Ratio par protéine 6290/Colistine: 0.14
  Ratio par protéine 8308/Colistine: 0.00
  Ratio par protéine CsbD/Colistine: 0.23
  Ratio par protéine DNA BP H-NS/Colistine: 0.00
  Ratio par protéine L29/Colistine: 0.00
  Ratio par protéine L31/Colistine: 0.00
  Ratio par protéine L34/Colistine: 0.00
  Ratio par protéine US9/Colistine: 0.088
  Somme des ratios: 0.45
Strain KP-R9
  classification by sum of the ratios against threshold: resistant (the strains whose sum of the ratios is strictly below 0.45 will be considered as resistant)
Strain KP-R16
  classification by sum of the ratios against threshold: resistant (the strains whose sum of the ratios is strictly below 0.45 will be considered as resistant)
Strain KP-S10
  classification by sum of the ratios against threshold: sensitive (the strains whose sum of the ratios is greater than or equal to 0.45 will be considered as sensitive)
Strain KP-S15
  classification by sum of the ratios against threshold: sensitive (the strains whose sum of the ratios is greater than or equal to 0.45 will be considered as sensitive)
Strain KP_R9
  sensitivity or resistance to colistin by MALDI-TOF: resistant
Strain KP_R16
  sensitivity or resistance to colistin by MALDI-TOF: resistant
Strain KP_S10
  sensitivity or resistance to colistin by MALDI-TOF: sensitive
Strain KP_S15
  sensitivity or resistance to colistin by MALDI-TOF: sensitive
